# Test results as given in ChEMBL document CHEMBL1139622, “Discovery of potent and selective orally bioavailable beta-substituted phenylalanine derived dipeptidyl peptidase IV inhibitors” (Bioorg Med Chem Lett, 2005).
# Tests used:
# Dipeptidyl peptidase 2 = Dipeptidyl peptidase 2 (Homo sapiens, UniProt Q9UHL4)
# Description: Inhibitory concentration against dipeptidylpeptidase II (QPP)
# Dipeptidyl peptidase 4 [1] = molecular target: Dipeptidyl peptidase 4 (Homo sapiens, UniProt P27487)
# Description: Inhibitory concentration against dipeptidylpeptidase IV
# Dipeptidyl peptidase 9 = Dipeptidyl peptidase 9 (Homo sapiens, UniProt Q86TI2)
# Description: Inhibitory concentration against dipeptidylpeptidase 9
# Dipeptidyl peptidase 8 = Dipeptidyl peptidase 8 (Homo sapiens, UniProt Q6V1X1)
# Description: Inhibitory concentration against dipeptidylpeptidase 8
# in vivo = conditions: rat
# [2] = Half-life in rat; type: ADME; conditions: in vivo
# [3] = Plasma clearance in rat; type: ADME, organism-based; conditions: read-out: Clp
# [4] = Half -life in rat; type: ADME; conditions: in vivo
# Dipeptidyl peptidase 4 [5] = molecular target: T1, Dipeptidyl peptidase 4 (Mus musculus, UniProt P28843); assay: Inhibitory concentration against mouse dipeptidylpeptidase IV in presence of 3% mouse serum
# [6] = Half-life in rhesus monkey; type: ADME; conditions: cercopithecidae, in vivo
# [7] = Plasma clearance in dog; type: ADME, organism-based, Canis lupus familiaris; conditions: read-out: Clp
# Dipeptidyl peptidase 4 [8] = molecular target: T1, Dipeptidyl peptidase 4; assay: Inhibitory concentration against mouse dipeptidylpeptidase IV in presence of 15% mouse serum
# [9] = Plasma clearance in rhesus monkey; type: ADME, organism-based; conditions: cercopithecidae, read-out: Clp
# Dipeptidyl peptidase 4 [10] = molecular target: T1, Dipeptidyl peptidase 4; assay: Inhibitory concentration against mouse dipeptidylpeptidase IV in presence of 50% mouse serum
# [11] = Half-life in dog; type: ADME, Canis lupus familiaris; conditions: in vivo
# Dipeptidyl peptidase 8, sequence (Q6V1X1 whole entry): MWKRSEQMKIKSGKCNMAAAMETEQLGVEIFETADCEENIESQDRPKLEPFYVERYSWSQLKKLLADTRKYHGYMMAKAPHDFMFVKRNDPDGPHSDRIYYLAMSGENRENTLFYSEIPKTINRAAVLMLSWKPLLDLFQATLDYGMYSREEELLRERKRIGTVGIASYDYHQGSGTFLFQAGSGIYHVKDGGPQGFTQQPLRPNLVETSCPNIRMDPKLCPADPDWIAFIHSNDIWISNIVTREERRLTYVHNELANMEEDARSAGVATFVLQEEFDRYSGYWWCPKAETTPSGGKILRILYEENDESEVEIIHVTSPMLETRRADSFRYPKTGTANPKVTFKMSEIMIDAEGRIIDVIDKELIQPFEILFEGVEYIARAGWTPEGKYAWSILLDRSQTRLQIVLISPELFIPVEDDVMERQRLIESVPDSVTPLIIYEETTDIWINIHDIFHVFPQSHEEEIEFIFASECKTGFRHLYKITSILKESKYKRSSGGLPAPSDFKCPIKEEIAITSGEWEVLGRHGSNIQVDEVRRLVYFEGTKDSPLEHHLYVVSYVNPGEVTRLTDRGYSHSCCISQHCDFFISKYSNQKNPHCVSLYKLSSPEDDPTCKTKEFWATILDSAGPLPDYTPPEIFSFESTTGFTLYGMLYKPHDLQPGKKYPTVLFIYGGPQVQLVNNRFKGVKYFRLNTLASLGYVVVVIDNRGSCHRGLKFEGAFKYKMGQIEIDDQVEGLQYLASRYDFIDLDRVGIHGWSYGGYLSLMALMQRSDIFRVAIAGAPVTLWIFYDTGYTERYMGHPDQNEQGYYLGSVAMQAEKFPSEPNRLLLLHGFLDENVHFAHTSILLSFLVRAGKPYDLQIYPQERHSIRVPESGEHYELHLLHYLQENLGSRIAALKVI
# Dipeptidyl peptidase 4 (Homo sapiens, UniProt P27487), sequence (P27487 whole entry): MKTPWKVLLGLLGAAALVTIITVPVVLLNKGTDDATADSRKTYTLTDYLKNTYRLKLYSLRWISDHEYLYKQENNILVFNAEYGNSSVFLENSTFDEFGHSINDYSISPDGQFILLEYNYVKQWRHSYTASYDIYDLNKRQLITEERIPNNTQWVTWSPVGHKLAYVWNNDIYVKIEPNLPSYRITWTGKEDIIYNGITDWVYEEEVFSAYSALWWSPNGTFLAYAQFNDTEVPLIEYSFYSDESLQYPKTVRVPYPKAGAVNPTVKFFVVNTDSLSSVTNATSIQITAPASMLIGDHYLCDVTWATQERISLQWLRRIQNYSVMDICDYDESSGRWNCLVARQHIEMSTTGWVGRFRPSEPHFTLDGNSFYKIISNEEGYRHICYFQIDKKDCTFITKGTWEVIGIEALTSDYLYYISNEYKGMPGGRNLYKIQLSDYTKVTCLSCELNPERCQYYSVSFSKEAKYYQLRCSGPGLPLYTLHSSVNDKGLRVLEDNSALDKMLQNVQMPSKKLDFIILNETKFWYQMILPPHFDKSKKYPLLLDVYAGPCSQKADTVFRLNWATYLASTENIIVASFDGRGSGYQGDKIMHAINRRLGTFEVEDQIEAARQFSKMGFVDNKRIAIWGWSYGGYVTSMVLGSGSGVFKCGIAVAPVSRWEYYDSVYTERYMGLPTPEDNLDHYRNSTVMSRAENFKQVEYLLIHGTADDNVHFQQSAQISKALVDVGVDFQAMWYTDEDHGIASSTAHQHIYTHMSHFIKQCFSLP
# Dipeptidyl peptidase 9, sequence (Q86TI2 whole entry): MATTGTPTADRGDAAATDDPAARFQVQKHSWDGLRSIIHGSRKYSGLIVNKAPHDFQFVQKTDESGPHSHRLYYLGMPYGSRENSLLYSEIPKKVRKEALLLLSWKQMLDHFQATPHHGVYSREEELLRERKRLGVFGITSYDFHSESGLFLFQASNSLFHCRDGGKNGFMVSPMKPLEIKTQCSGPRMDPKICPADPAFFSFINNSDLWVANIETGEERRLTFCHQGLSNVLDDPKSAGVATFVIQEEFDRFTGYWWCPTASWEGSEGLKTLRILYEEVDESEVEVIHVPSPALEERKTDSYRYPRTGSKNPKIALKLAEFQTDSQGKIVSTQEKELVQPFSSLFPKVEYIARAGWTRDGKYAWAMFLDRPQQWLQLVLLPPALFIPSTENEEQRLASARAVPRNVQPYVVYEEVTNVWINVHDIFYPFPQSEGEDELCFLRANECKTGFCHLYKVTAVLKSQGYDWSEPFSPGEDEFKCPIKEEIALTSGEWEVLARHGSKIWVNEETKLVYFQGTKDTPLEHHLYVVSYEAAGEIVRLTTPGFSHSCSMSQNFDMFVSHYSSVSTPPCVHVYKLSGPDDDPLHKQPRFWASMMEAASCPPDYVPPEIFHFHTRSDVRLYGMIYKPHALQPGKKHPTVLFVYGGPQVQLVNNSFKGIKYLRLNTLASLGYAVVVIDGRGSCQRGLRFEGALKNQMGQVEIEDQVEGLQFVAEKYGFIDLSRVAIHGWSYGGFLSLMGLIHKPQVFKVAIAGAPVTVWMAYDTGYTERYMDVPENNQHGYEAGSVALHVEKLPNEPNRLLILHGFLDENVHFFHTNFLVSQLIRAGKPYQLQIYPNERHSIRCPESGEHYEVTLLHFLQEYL
# T1 sequence (P28843 whole entry): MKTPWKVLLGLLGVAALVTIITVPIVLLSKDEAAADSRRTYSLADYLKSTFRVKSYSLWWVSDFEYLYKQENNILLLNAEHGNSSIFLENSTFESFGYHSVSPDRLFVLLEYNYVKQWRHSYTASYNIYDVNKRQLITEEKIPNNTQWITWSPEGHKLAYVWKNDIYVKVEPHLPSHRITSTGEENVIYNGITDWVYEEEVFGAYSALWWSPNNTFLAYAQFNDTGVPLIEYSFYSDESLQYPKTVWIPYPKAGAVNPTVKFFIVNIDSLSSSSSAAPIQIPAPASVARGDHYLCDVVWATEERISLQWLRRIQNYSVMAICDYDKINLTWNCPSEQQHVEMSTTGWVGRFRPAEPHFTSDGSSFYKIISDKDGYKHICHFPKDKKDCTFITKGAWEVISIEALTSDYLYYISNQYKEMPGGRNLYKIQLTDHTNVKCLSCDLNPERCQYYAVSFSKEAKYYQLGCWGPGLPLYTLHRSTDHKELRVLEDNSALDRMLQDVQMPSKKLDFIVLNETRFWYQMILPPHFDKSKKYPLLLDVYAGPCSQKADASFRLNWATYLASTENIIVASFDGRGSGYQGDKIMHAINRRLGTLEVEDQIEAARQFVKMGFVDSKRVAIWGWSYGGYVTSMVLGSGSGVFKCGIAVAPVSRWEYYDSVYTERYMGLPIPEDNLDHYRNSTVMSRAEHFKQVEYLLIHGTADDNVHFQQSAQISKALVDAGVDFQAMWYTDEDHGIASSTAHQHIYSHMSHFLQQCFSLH
Structure (SMILES),IC50 (Dipeptidyl peptidase 2) [µM],IC50 (Dipeptidyl peptidase 4 [1]) [µM],IC50 (Dipeptidyl peptidase 9) [µM],IC50 (Dipeptidyl peptidase 8) [µM],also measured
CN(C)C(=O)[C@@H](c1ccc(-c2cccc(C#N)c2)cc1)[C@H](N)C(=O)N1CC[C@H](F)C1,57,0.043,–,–,–
N[C@H](C(=O)N1CC[C@H](F)C1)[C@@H](CO)c1ccc(-c2ccc(F)cc2)cc1,15,0.39,> 100,> 100,–
CN(C)C(=O)[C@@H](c1ccc(-c2ccc(F)cc2F)cc1)[C@H](N)C(=O)N1CC[C@H](F)C1,15,0.013,> 100,–,–
CN(C)C(=O)[C@@H](c1ccc(-c2ccc(F)cc2)cc1)[C@H](N)C(=O)N1CCC1,> 100,0.1,> 100,> 100,–
N[C@@H](Cc1ccc(-c2ccc(F)cc2)cc1)C(=O)N1CC[C@H](F)C1,> 100,0.98,> 100,> 100,–
CN(C)C(=O)[C@@H](c1ccc(-c2cccc(-n3cnnn3)c2)cc1)[C@H](N)C(=O)N1CC[C@H](F)C1.O=C(O)C(F)(F)F,29,0.0022,> 100,> 100,bioavailability (in vivo): < 1%; half-life [2]: 0.74 h; clearance [3]: 18 mL/min/kg
N[C@H](C(=O)N1CC[C@H](F)C1)[C@@H](Cn1cnnn1)c1ccc(-c2ccc(F)cc2)cc1,> 100,0.192,> 100,> 100,–
CN(C)C(=O)[C@@H](c1ccc(-c2ccc(F)cc2)cc1)[C@H](N)C(=O)N1CCC[C@H]1C#N,40,0.0033,–,–,–
N[C@H](C(=O)N1CC[C@H](F)C1)[C@@H](C(=O)NCCO)c1ccc(-c2ccc(F)cc2)cc1,–,0.094,> 100,–,–
CCNC(=O)[C@@H](c1ccc(-c2ccc(F)cc2)cc1)[C@H](N)C(=O)N1CC[C@H](F)C1,90,0.11,> 100,> 100,–
NC(=O)[C@@H](c1ccc(-c2ccc(F)cc2)cc1)[C@H](N)C(=O)N1CC[C@H](F)C1,> 100,0.11,> 100,> 100,–
CNC(=O)[C@@H](c1ccc(-c2ccc(F)cc2)cc1)[C@H](N)C(=O)N1CC[C@H](F)C1,> 100,0.037,> 100,–,–
N[C@H](C(=O)N1CC[C@H](F)C1)[C@@H](C(=O)O)c1ccc(-c2ccc(F)cc2)cc1.O=C(O)C(F)(F)F,> 100,0.0066,> 100,> 100,bioavailability (in vivo): 16%; clearance [3]: 0.25 mL/min/kg; half-life [4]: 3.1 h
CN(C)C(=O)[C@@H](c1ccc(-c2ccc(F)cc2)cc1)[C@H](N)C(=O)N1CC(F)(F)C1,9.4,0.029,> 100,> 100,–
CN(C)C(=O)[C@@H](c1ccc(-c2ccc(F)cc2)cc1)[C@H](N)C(=O)N1CCOCC1,77,0.52,> 100,> 100,–
N[C@H](C(=O)N1CC[C@H](F)C1)[C@@H](C(=O)N1CCC1)c1ccc(-c2ccc(F)cc2)cc1,5.3,0.044,> 100,–,–
CN(C)C[C@@H](c1ccc(-c2ccc(F)cc2)cc1)[C@H](N)C(=O)N1CC[C@H](F)C1,2.5,1.6,> 100,–,–
CN(C)C(=O)[C@@H](c1ccc(-c2ccc(F)cc2)cc1)[C@H](N)C(=O)N1CCCC1.O=C(O)C(F)(F)F,26,0.0075,–,–,bioavailability (in vivo): 100%; half-life [2]: 2 h; clearance [3]: 16 mL/min/kg
CC(C)NC(=O)[C@@H](c1ccc(-c2ccc(F)cc2)cc1)[C@H](N)C(=O)N1CC[C@H](F)C1,76,0.099,> 100,–,–
CN(C)C(=O)[C@@H](c1ccc(-c2cccc(S(C)(=O)=O)c2)cc1)[C@H](N)C(=O)N1CC[C@H](F)C1,81,0.021,> 100,> 100,–

Structure (SMILES),IC50 (Dipeptidyl peptidase 2) [µM],IC50 (Dipeptidyl peptidase 4 [1]) [µM],IC50 (Dipeptidyl peptidase 9) [µM],IC50 (Dipeptidyl peptidase 8) [µM],also measured
CN(C)C(=O)[C@@H](c1ccc(-c2ccc(F)cc2)cc1)[C@H](N)C(=O)N1CCC(F)(F)C1,7.1,0.027,–,–,–
N[C@H](C(=O)N1CC[C@H](F)C1)[C@@H](C(=O)N1CCCC1)c1ccc(-c2ccc(F)cc2)cc1.O=C(O)C(F)(F)F,5.6,0.0092,–,–,bioavailability (in vivo): 21%; half-life [2]: 1.7 h; clearance [3]: 18 mL/min/kg
CN(C)C(=O)[C@@H](c1ccc(-c2ccc(F)cc2)cc1)[C@H](N)C(=O)N1CC(F)C1,58,0.017,> 100,> 100,–
CON(C)C(=O)[C@@H](c1ccc(-c2ccc(F)cc2)cc1)[C@H](N)C(=O)N1CC[C@H](F)C1,> 100,0.045,> 100,–,–
N[C@H](C(=O)N1CC[C@H](F)C1)[C@@H](C(=O)Nn1cnnn1)c1ccc(-c2ccc(F)cc2)cc1.O=C(O)C(F)(F)F,> 100,0.011,> 100,–,bioavailability (in vivo): < 1%; half-life [2]: 0.2 h; clearance [3]: 55 mL/min/kg
CN(C)C(=O)[C@@H](c1ccc(-c2ccc(-[n+]3ccccc3)cc2)cc1)[C@H](N)C(=O)N1CC[C@H](F)C1,89,0.02,–,> 100,–
CN(C)C(=O)[C@@H](c1ccc(-c2cc(F)ccc2F)cc1)[C@H](N)C(=O)N1CC[C@H](F)C1,11,0.056,> 100,–,–
CN(C)C(=O)[C@@H](c1ccc(-c2ccc(F)cc2)cc1)[C@H](N)C(=O)N1CC[C@H](F)C1.O=C(O)C(F)(F)F,–,–,–,–,IC50 (Dipeptidyl peptidase 4 [5]): 0.05 µM; half-life [6]: 4.7 h; clearance [7]: 1.5 mL/min/kg; IC50 (Dipeptidyl peptidase 4 [8]): 0.071 µM; clearance [9]: 2.4 mL/min/kg; IC50 (Dipeptidyl peptidase 4 [10]): 0.23 µM; half-life [11]: 6.1 h; half-life [2]: 3.5 h; clearance [3]: 4.8 mL/min/kg
CN(C)C(=O)[C@@H](c1ccc(-c2ccc(F)c(F)c2)cc1)[C@H](N)C(=O)N1CC[C@H](F)C1,44,0.021,–,–,–
CCN(CC)C(=O)[C@@H](c1ccc(-c2ccc(F)cc2)cc1)[C@H](N)C(=O)N1CC[C@H](F)C1,48,0.059,> 100,–,–
COC(=O)[C@@H](c1ccc(-c2ccc(F)cc2)cc1)[C@H](N)C(=O)N1CC[C@H](F)C1,21,0.22,> 100,> 100,–
N[C@H](C(=O)N1CC[C@H](F)C1)[C@@H](CN1CCCC1)c1ccc(-c2ccc(F)cc2)cc1,0.7,3.5,> 100,–,–
CN(C)C(=O)[C@@H](c1ccc(-c2ccc(F)cc2)cc1)[C@H](N)C(=O)N1CCSC1,8.5,0.0091,–,–,–
CCN(C)C(=O)[C@@H](c1ccc(-c2ccc(F)cc2)cc1)[C@H](N)C(=O)N1CC[C@H](F)C1,43,0.02,> 100,–,–
N[C@H](C(=O)N1CC[C@H](F)C1)[C@@H](C(=O)NC1CC1)c1ccc(-c2ccc(F)cc2)cc1,55,0.071,> 100,–,–
CN(C)C(=O)[C@@H](c1ccc(-c2cccc(-[n+]3ccccc3)c2)cc1)[C@H](N)C(=O)N1CC[C@H](F)C1,57,0.019,> 100,–,–
CN(C)C(=O)[C@@H](c1ccc(-c2ccc(F)cc2)cc1)[C@H](N)C(=O)N1CCCCC1,38,0.55,> 100,> 100,–
CN(C)NC(=O)[C@@H](c1ccc(-c2ccc(F)cc2)cc1)[C@H](N)C(=O)N1CC[C@H](F)C1,> 100,0.067,> 100,–,–
CN(C)C(=O)[C@@H](c1ccc(-c2ccc(F)cc2)cc1)[C@H](N)C(=O)N1CCS(=O)(=O)C1,75,0.23,> 100,> 100,–
